The source of these data is PubChem BioAssay (NCI).

Where “and” joins values, the source holds several entries; their conditions need not be identical. Equal entries are not always repeated.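 Test compounds were applied to cells in 96-well plates for 48 hours at 5 doses. The concentration for 50% growth inhibition is given as GI50. TGI: total growth inhibition.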 A value given as a limit tells only on which side of the number the result lay.

Test systems include NCI-H226 lung; EKVX NSCLC; MALME-3M melanoma; K-562 leukemia; SW-620 colon; HL-60(TB) leukemia; IGROV1 ovarian; UO-31 renal; HS 578T breast; T-47D breast.
What all share (assay): DTP human tumour cell line panel, 48 h

By TGI is commonly meant the concentration at which net growth stops. Read a high TGI as less potent growth arrest. With `Cc1cccc(C)c1NC(=O)C(=O)Cc1nc2ccccc2s1`, the TGI in the assay with NCI-H226 lung, in the assay with EKVX NSCLC, in the assay on MALME-3M melanoma, in the assay with K-562 leukemia, in the assay with SW-620 colon and in the assay with HL-60(TB) leukemia was greater than 100 µM throughout. For the same molecule, the TGI in the assay on IGROV1 ovarian and in the assay with UO-31 renal was greater than 100 µM each time.
For the molecule `Cn1c(=O)oc2cc(C3CCC(=O)N3Cc3csc(-c4ccccc4)n3)ccc21` (centres undefined), the TGI in the assay with NCI-H226 lung, in the assay on EKVX NSCLC, in the assay with MALME-3M melanoma, in the assay with K-562 leukemia, with SW-620 colon and in the assay with HL-60(TB) leukemia was greater than 100 µM throughout. The TGI in the assay on IGROV1 ovarian and in the assay with UO-31 renal was greater than 100 µM each time.
With `Cc1cc(Cl)ccc1NC(=O)CCCC(=O)C1C/C(=N/O)CC/C1=N\O` (centres undefined), the TGI in the assay on NCI-H226 lung, in the assay with EKVX NSCLC, in the assay with MALME-3M melanoma, in the assay with K-562 leukemia, in the assay on SW-620 colon and with HL-60(TB) leukemia was greater than 100 µM each time. The TGI with IGROV1 ovarian and in the assay on UO-31 renal was greater than 100 µM throughout.
`O=c1c(Cc2ccccc2)c(O)cc2n1CCC2`: the TGI in the assay on NCI-H226 lung, with EKVX NSCLC, in the assay on MALME-3M melanoma, with K-562 leukemia, in the assay on SW-620 colon and in the assay on IGROV1 ovarian was greater than 100 µM in each case. This molecule returned a TGI in the assay with UO-31 renal greater than 100 µM.
The term GI50 denotes the concentration at which growth is held to half of that of the control. For `COc1ccc2[nH]c(C(=O)N3CCN(C(=O)OCc4ccc5c(Cl)cc(Cl)c(O)c5n4)CC3)cc2c1`, the GI50 with NCI-H226 lung was 1.18 µM; with EKVX NSCLC it was 1.61 µM; with MALME-3M melanoma it was 1.59 µM; in the assay with K-562 leukemia it was 0.543 µM; in the assay on SW-620 colon, 0.401 µM; with HL-60(TB) leukemia, 0.977 µM. Besides, the GI50 in the assay on HS 578T breast was 1.87 µM; in the assay with IGROV1 ovarian, 0.527 µM; in the assay on UO-31 renal, 1.01 µM. In addition, the TGI in the assay on NCI-H226 lung turned out to be 2.56 µM; in the assay with EKVX NSCLC, 2.97 µM; with MALME-3M melanoma, 3.02 µM; in the assay on K-562 leukemia, 4.41 µM; in the assay with SW-620 colon, 1.61 µM; in the assay with HL-60(TB) leukemia, 2.85 µM. In addition, the TGI with HS 578T breast worked out at 6.07 µM; in the assay on IGROV1 ovarian, 1.86 µM; in the assay on UO-31 renal it was 2.17 µM.
In the case of `CSc1nc(Nc2cccc(NC(=O)CCl)c2)c(C#N)c(-c2cccc([N+](=O)[O-])c2)n1`, the GI50 in the assay with NCI-H226 lung was 2.15 µM; in the assay on EKVX NSCLC, 3.36 µM; in the assay with MALME-3M melanoma, 0.191 µM; with K-562 leukemia, 2.28 µM; in the assay with SW-620 colon it was 1.93 µM; in the assay on HL-60(TB) leukemia, 1.82 µM. Moreover, the GI50 with HS 578T breast was 3.21 µM; in the assay with IGROV1 ovarian, 0.214 µM; in the assay with UO-31 renal, 1.62 µM. Also, the TGI with NCI-H226 lung is 6.32 µM; in the assay with EKVX NSCLC it was 13.2 µM; in the assay on MALME-3M melanoma it was 0.635 µM; in the assay on K-562 leukemia, greater than 100 µM; with SW-620 colon it was 5.11 µM; in the assay on HL-60(TB) leukemia, 6.48 µM. For the same molecule, the TGI in the assay with HS 578T breast came out at 30.7 µM; in the assay with IGROV1 ovarian it was 0.685 µM; in the assay on UO-31 renal, 5.73 µM.
With `CC(C)Cc1cnc(CC(C)C)c(=O)[nH]1`, the TGI in the assay with T-47D breast, in the assay on EKVX NSCLC, in the assay on K-562 leukemia, with SW-620 colon, with HS 578T breast and in the assay with IGROV1 ovarian was greater than 100 µM in each case. The TGI in the assay with UO-31 renal was greater than 100 µM.
On to `CN1CCCC2[C@@H]3CCC4c5nonc5CC[C@]4(C)C3CC[C@@]21C` (some centres undefined), for which the TGI in the assay with NCI-H226 lung, in the assay on EKVX NSCLC, in the assay with MALME-3M melanoma, in the assay with K-562 leukemia, in the assay on SW-620 colon and in the assay on IGROV1 ovarian was greater than 100 µM in each case. In the assay on UO-31 renal, the TGI is greater than 100 µM.
As to `O=c1[nH]ccc(CNC23CC4CC(CC(C4)C2)C3)c1O`, the TGI in the assay on NCI-H226 lung, in the assay with EKVX NSCLC, with MALME-3M melanoma, with K-562 leukemia, in the assay on SW-620 colon and in the assay on HL-60(TB) leukemia was greater than 100 µM throughout. For the same molecule, the TGI in the assay on IGROV1 ovarian and in the assay with UO-31 renal was greater than 100 µM in each case.
Regarding `Cc1cc2c(c(C(=O)O)c1C)-c1cccc(Cl)c1C2=O`, the TGI in the assay on NCI-H226 lung, in the assay with EKVX NSCLC, in the assay on MALME-3M melanoma, with K-562 leukemia, in the assay with SW-620 colon and in the assay with IGROV1 ovarian was greater than 100 µM in each case. Besides, the TGI with UO-31 renal is greater than 100 µM.
As to `CCC[CH2][Sn-]([CH2]CCC)([CH2]CCC)[O]C(=O)C(C)C`, the GI50 in the assay on NCI-H226 lung was 0.161 µM; in the assay on EKVX NSCLC it was 0.154 µM; with MALME-3M melanoma it was 0.0229 µM; in the assay on K-562 leukemia, 0.146 µM; in the assay on SW-620 colon, 0.124 µM; with HL-60(TB) leukemia, 0.111 µM. For the same molecule, the GI50 with HS 578T breast is 0.354 µM; with IGROV1 ovarian, 0.166 µM; with UO-31 renal it was 0.158 µM. Moreover, the TGI is 0.34 µM in the assay with NCI-H226 lung; 0.362 µM in the assay on EKVX NSCLC; 0.204 µM in the assay with MALME-3M melanoma; 0.315 µM with K-562 leukemia; 0.272 µM with SW-620 colon; 0.304 µM in the assay with HL-60(TB) leukemia. Moreover, the TGI is 1.92 µM with HS 578T breast, 0.324 µM in the assay with IGROV1 ovarian and 0.312 µM in the assay with UO-31 renal.
Take `OCC(O)C(O)C(O)C(/C=N\Nc1ncnc2c(Br)cc(Br)cc12)=N/Nc1ncnc2c(Br)cc(Br)cc12` (centres undefined): the TGI in the assay with NCI-H226 lung is 9.42 µM; in the assay on MALME-3M melanoma it was 14.4 µM and > 100 µM; in the assay with K-562 leukemia, 26.9 µM and > 100 µM; in the assay on SW-620 colon, greater than 100 µM; with HL-60(TB) leukemia, greater than 100 µM; in the assay with HS 578T breast, greater than 100 µM. Moreover, the concentration for total growth inhibition (TGI) with IGROV1 ovarian was 10.1 µM and > 100 µM; with UO-31 renal, 54.2 µM and > 100 µM. For the same molecule, the GI50 with EKVX NSCLC is 1.88 µM and 4.49 µM; in the assay on HL-60(TB) leukemia it was 6.47 µM and 2.8 µM; in the assay on UO-31 renal it was 21.7 µM and > 100 µM.
For `COc1cc2c(/C=C3\C(=O)Nc4ccccc43)c[nH]c2cc1C`, the GI50 in the assay on NCI-H226 lung is 0.035 µM; in the assay on EKVX NSCLC it was 0.0559 µM; in the assay on K-562 leukemia, 0.225 µM; in the assay with SW-620 colon it was less than 0.0209 µM; with HL-60(TB) leukemia, 0.494 µM; in the assay with HS 578T breast, less than 0.0229 µM. Moreover, the GI50 in the assay with UO-31 renal was 2.87 µM. Moreover, the TGI was 19.7 µM in the assay with NCI-H226 lung; 26.5 µM in the assay on EKVX NSCLC; 61.4 µM with K-562 leukemia; 39.8 µM in the assay with SW-620 colon; 4.45 µM in the assay on HL-60(TB) leukemia; 32.1 µM in the assay with HS 578T breast. In the assay with UO-31 renal, this molecule gave a TGI greater than 40.8 µM.
